The target in assay [1] is Rev responsive element (RRE) RNA. The assay is described as follows: Dissociation constant of compound with Rev-responsive element (RRE) IIB RNA was determined by the competition assay. The format is nucleic-acid assay.
The subject of assay [2] is Rev responsive element (RRE) RNA. The assay is described as follows: Ratio of the dissociation constant between Rev37-50 and the PNA-peptide. In kind it is nucleic-acid assay.

SMILES strings stand for the structures. pKd: −log10 of the molar value.

`C[C@H](NC(=O)CN(CCNC(=O)CCC(=O)O)C(=O)Cn1cnc2c(=O)[nH]c(N)nc21)C(=O)N[C@@H](CCCNC(=N)N)C(=O)N[C@@H](CCCNC(=N)N)C(=O)N[C@@H](CC(N)=O)C(=O)N[C@@H](CCCNC(=N)N)C(=O)N[C@@H](CCCNC(=N)N)C(=O)N[C@@H](CCCNC(=N)N)C(=O)N[C@@H](CCCNC(=N)N)C(=O)N[C@@H](Cc1c[nH]c2ccccc12)C(=O)N[C@@H](CCCNC(=N)N)C(=O)N[C@@H](CCC(=O)O)C(=O)N[C@@H](CCCNC(=N)N)C(=O)N[C@@H](CCC(N)=O)C(=O)N[C@H](CCCNC(=N)N)C(N)=O`: the pKd in assay [1] is 7.52. The Ratio in assay [2] is 2.9.

Compound `Cc1cn(CC(=O)N(CCNC(=O)CCC(=O)O)CC(=O)NCCN(CC(=O)NCCN(CC(=O)NCCN(CC(=O)NCCN(CC(=O)N[C@@H](C)C(=O)N[C@@H](CCCNC(=N)N)C(=O)N[C@@H](CCCNC(=N)N)C(=O)N[C@@H](CC(N)=O)C(=O)N[C@@H](CCCNC(=N)N)C(=O)N[C@@H](CCCNC(=N)N)C(=O)N[C@@H](CCCNC(=N)N)C(=O)N[C@@H](CCCNC(=N)N)C(=O)N[C@@H](Cc2c[nH]c3ccccc23)C(=O)N[C@@H](CCCNC(=N)N)C(=O)N[C@@H](CCC(=O)O)C(=O)N[C@@H](CCCNC(=N)N)C(=O)N[C@@H](CCC(N)=O)C(=O)N[C@H](CCCNC(=N)N)C(N)=O)C(=O)Cn2ccc(N)nc2=O)C(=O)Cn2cnc3c(=O)[nH]c(N)nc32)C(=O)Cn2ccc(N)nc2=O)C(=O)Cn2cnc3c(=O)[nH]c(N)nc32)c(=O)[nH]c1=O` had a pKd in assay [1] of 8.27. Besides, the Ratio in assay [2] was 16.

These data come from ChEMBL document CHEMBL1134253, “HIV Rev peptides conjugated with peptide nucleic acids and their efficient binding to RRE RNA” (Bioorg Med Chem Lett, 2001).
